Drawing on patent US7601746B2 (Shionogi & Co., Ltd., priority 2003, dated 2009), this text covers EC50 for 26 compounds.

SMILES strings stand for the structures. pEC50: −log10 of the molar value.

The target of this assay is T1, human TPO receptor (hTPOR) (Homo sapiens, UniProt P40238).
T1 construct: expressed in transfected cells; host or cells: BaF-B03 (murine IL-3 dependent cell line)
T1 sequence (P40238 26-635): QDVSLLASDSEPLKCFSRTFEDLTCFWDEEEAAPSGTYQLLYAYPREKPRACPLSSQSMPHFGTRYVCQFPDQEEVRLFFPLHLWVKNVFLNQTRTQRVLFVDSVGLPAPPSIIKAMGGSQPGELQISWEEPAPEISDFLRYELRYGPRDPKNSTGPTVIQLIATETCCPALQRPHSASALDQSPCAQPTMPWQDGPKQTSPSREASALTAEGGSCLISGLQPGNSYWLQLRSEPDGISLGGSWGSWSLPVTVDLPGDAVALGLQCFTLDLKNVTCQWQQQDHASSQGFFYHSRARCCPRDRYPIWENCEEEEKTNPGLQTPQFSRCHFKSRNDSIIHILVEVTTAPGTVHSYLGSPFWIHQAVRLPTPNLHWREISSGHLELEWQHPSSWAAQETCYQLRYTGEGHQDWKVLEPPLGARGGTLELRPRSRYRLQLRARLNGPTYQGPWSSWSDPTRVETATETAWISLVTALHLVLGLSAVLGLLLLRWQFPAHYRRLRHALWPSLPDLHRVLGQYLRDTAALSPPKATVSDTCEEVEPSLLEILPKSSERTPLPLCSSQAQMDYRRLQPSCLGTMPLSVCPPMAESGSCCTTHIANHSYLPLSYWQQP
In words: Thrombopoietic activity: proliferation of TPO dependent BaF/hTPOR cells (WST-1, absorbance at 450 nm). It counts as cell-based. The following applies: 20 h + 4 h WST-1, ED50 = half concentration of the concentration showing the maximum thrombopoietic activity. The text has this: The TPO dependent BaF/hTPOR cell line which was established by introducing human TPO receptor (hTPOR) into BaF-B03 cells according to Collins et al (J. Cell. Physiol., 137:293-298 (1988)) was used to test the thrombopoietic activity of the present compound. The DNA sequences and encoded peptide sequences for human hTPOR have been described by Vigon et al (Proc. Natl. Acad. Sci. USA, 89:5640-5644 (1992)). TPO dose not have any ability to support proliferation of interlukin-3 dependent parental cell line BaF-B03. BAF/hTPOR cells were maintained in RPMI medium and WEHI-3B conditioned medium as a source of murine interleukin-3 (IL-3). These cells were washed and resuspended in RPMI medium without a source of murine IL-3 and seeded into each well of 96-well microtiter plates at a density of 5×10^4 cells per well in the absence or presence of various concentration of hTPO or the present compound. After incubation at 37° C. for 20 hours in the 5% CO2 incubator, 10% WST-1 reagent (Takara Biomedicals, Japan) was added to each wells and the cells were further incubated for 4 hours. The absorbance at 450 nm was measured. Tables 1 and 2 exemplify the ED50 for tested compounds of the present invention, wherein the ED50 is the half concentration of the concentration showing the maximum thrombopoietic activity.

As a reminder, the pEC50 is −log10 of the EC50, conventionally taken in molar units. For the compound `CO/C(=C\c1c(Cl)cc(C(=O)Nc2nc(-c3cccc(C(OC)C(C)(C)C)c3F)c(OC)s2)cc1Cl)C(=O)O` (centres unmarked) [Compound B1909, (Z)-3-(2,6-dichloro-4-{4-[2-fluoro-3-(1-methyloxy-2,2-dimethylpropyl)phenyl]-5-methyloxythiazol-2-ylcarbamoyl}phenyl)-2-methyloxyacrylic acid], the pEC50 (Table 2) is 7.59.
For `CO/C(=C\c1c(F)cc(C(=O)Nc2nc(-c3cccc(COCCC(C)(C)C)c3OC)cs2)cc1F)C(=O)O` [Compound B1935, (Z)-3-(4-{4-[3-(3,3-dimethylbutyloxymethyl)-2-methyloxyphenyl]thiazol-2-ylcarbamoyl}-2,6-difluorophenyl)-2-methyloxyacrylic acid], the pEC50 (Table 2) is 7.60.
Consider `CCCCCCCCCCC(OC)c1cccc(-c2csc(NC(=O)c3cc(F)c(/C=C(\C)C(=O)O)c(F)c3)n2)c1OC` (centres unmarked) [Compound B355, (E)-3-(2,6-difluoro-4-{4-[2-methyloxy-3-(1-methyloxyundecyl)phenyl]thiazol-2-ylcarbamoyl}phenyl)-2-methylacrylic acid], for which the pEC50 (Table 1) is 8.48.
Turning to `COc1c(COCCCC(C)C)cccc1-c1csc(NC(=O)c2cc(F)c(/C=C(\C)C(=O)O)c(F)c2)n1` [Compound B1938], the pEC50 (Table 1) was 7.90.
Consider `COc1c(CCCOCCC(C)(C)C)cccc1-c1csc(NC(=O)c2cc(F)c(/C=C(\C)C(=O)O)c(F)c2)n1` [Compound B521, (E)-3-[4-(4-{3-[3-(3,3-dimethylbutyloxy)propyl]-2-methyloxyphenyl}thiazol-2-ylcarbamoyl}-2,6-difluorophenyl)-2-methylacrylic acid], for which the pEC50 (Table 1) is 7.77.
Regarding `CCCCCCOCCc1cccc(-c2csc(NC(=O)c3cc(Cl)c(/C=C(\C)C(=O)O)c(Cl)c3)n2)c1OC` [Compound B1928, (E)-3-(2,6-dichloro-4-{4-[3-(2-hexyloxyethyl)-2-methyloxyphenyl]thiazol-2-ylcarbamoyl)phenyl)-2-methylacrylic acid], the pEC50 (Table 1) was 7.90.
`CCCCCOCCc1cccc(-c2csc(NC(=O)c3cc(Cl)c(/C=C(\C)C(=O)O)c(Cl)c3)n2)c1OC` [Compound B1925, (E)-3-(2,6-dichloro-4-{4-[2-methyloxy-3-(2-pentyloxyethyl)phenyl]thiazol-2-ylcarbamoyl)phenyl)-2-methylacrylic acid]: under “Table 1”, the pEC50 was 7.73.
Consider `CCCCCCOCCc1cccc(-c2csc(NC(=O)c3cc(F)c(/C=C(\OC)C(=O)O)c(F)c3)n2)c1OC` [Compound B1927, (Z)-3-(2,6-difluoro-4-{4-[3-(2-hexyloxyethyl)-2-methyloxyphenyl]thiazol-2-ylcarbamoyl)phenyl)-2-methyloxyacrylic acid], for which, where the note is “Table 1”, the pEC50 is 7.71.
On to `CCCCCOC(CCCC)c1cccc(-c2csc(NC(=O)c3cc(Cl)c(C=C(C)C(=O)O)c(Cl)c3)n2)c1F` (centres unmarked) [Compound B70, 3-(2,6-dichloro-4-{4-[2-fluoro-3-(1-n-pentyloxypentyl)phenyl]thiazol-2-ylcarbamoyl}phenyl)-2-methylacrylic acid], for which the pEC50 (Table 1) was 9.37.
Take `CC(=Cc1c(F)cc(C(=O)Nc2nc(-c3cccc(CCCOCCCC(C)C)c3F)cs2)cc1F)C(=O)O` [Compound B39, 3-[2,6-difluoro-4-(4-(2-fluoro-3-[3-(4-methylpentyloxy)propyl]phenyl}thiazol-2-ylcarbamoyl)phenyl]-2-methylacrylic acid]: the pEC50 (Table 1) is 9.00.
For `CCCCCCOC(c1cccc(-c2csc(NC(=O)c3cc(F)c(/C=C(\C)C(=O)O)c(F)c3)n2)c1OC)C1CCCCC1` (centres unmarked) [Compound B519], the pEC50 (Table 1) is 8.99.
Still for that read-out and setting: the same measure for `CCCOC(C)c1cccc(-c2csc(NC(=O)c3cc(Cl)c(C=C(C)C(=O)O)c(Cl)c3)n2)c1F` (centres unmarked) [Compound B97, 3-(2,6-dichloro-4-{4-[2-fluoro-3-(1-n-propyloxyethyl)phenyl]thiazol-2-ylcarbamoyl)phenyl]-2-methylacrylic acid]: 9.03.
Consider `CCCCCCCOc1cccc(-c2csc(NC(=O)c3cc(Cl)c(/C=C(\OC)C(=O)O)c(Cl)c3)n2)c1OC` [Compound B2001, (Z)-3-{2,6-dichloro-4-[4-(3-heptyloxy-2-methyloxyphenyl)thiazol-2-ylcarbamoyl]phenyl}-2-methyloxyacrylic acid], for which the pEC50 (Table 1) is 7.71.
On the same count and under the same terms, the result for `COC(=Cc1c(F)cc(C(=O)Nc2nc(-c3cccc(COCC(C)(C)C)c3OC)cs2)cc1F)C(=O)O` (stereo in doubt) [Compound B2020, (E)-3-(4-{4-[3-(2,2-dimethylpropyloxymethyl)-2-methyloxyphenyl]thiazol-2-ylcarbamoyl}-2,6-difluorophenyl)-2-methyloxyacrylic acid] reads 7.96.
Turning to `CCCCCCCCOc1cccc(-c2csc(NC(=O)c3cc(F)c(/C=C(\C)C(=O)O)c(F)c3)n2)c1OC` [Compound B2004, (E)-3-{2,6-difluoro-4-[4-(2-methyloxy-3-octyloxyphenyl)thiazol-2-ylcarbamoyl]phenyl}-2-methylacrylic acid], under “Table 1”, the pEC50 was 7.86.
Still for that read-out and setting: the result for `CCCCC(OCCC)c1cccc(-c2csc(NC(=O)c3cc(F)c(C=C(C)C(=O)O)c(F)c3)n2)c1F` (centres unmarked) [Compound B41, 3-(2,6-difluoro-4-{4-[2-fluoro-3-(1-n-propyloxypentyl)phenyl]thiazol-2-ylcarbamoyl}phenyl)-2-methylacrylic acid] reads 9.17; that for `COc1c(COCCCC2CCCCC2)cccc1-c1csc(NC(=O)c2cc(F)c(/C=C(\C)C(=O)O)c(F)c2)n1` [Compound B397], 8.60.
In the case of `CCCCC(OCC)c1cccc(-c2csc(NC(=O)c3cc(Cl)c(C=C(C)C(=O)O)c(Cl)c3)n2)c1F` (centres unmarked) [Compound B71, 3-(2,6-dichloro-4-{4-[3-(1-ethyloxypentyl)-2-fluorophenyl]thiazol-2-ylcarbamoyl}phenyl)-2-methylacrylic acid], where the note is “Table 1”, the pEC50 is 9.00.
With `CCCCCCCCCC(OC)c1cccc(-c2csc(NC(=O)c3cc(F)c(/C=C(\C)C(=O)O)c(F)c3)n2)c1OC` (centres unmarked) [Compound B354, (E)-3-(2,6-difluoro-4-{4-[2-methyloxy-3-(1-methyloxydecyl)phenyl]thiazol-2-ylcarbamoyl}phenyl)-2-methylacrylic acid], the pEC50 (Table 1) is 8.49.
With `CCCCCOC(CCC)c1cccc(-c2csc(NC(=O)c3cc(Cl)c(C=C(C)C(=O)O)c(Cl)c3)n2)c1F` (centres unmarked) [Compound B80, 3-(2,6-dichloro-4-{4-[2-fluoro-3-(1-n-pentyloxybutyl)phenyl]thiazol-2-ylcarbamoyl}phenyl)-2-methylacrylic acid], the negative-log EC50 (pEC50) (Table 1) is 9.15.
Turning to `CCCCOC(CCC)c1cccc(-c2csc(NC(=O)c3cc(F)c(C=C(C)C(=O)O)c(F)c3)n2)c1F` (centres unmarked) [Compound B35, 3-(4-{4-[3-(1-n-butyloxybutyl)-2-fluorophenyl]thiazol-2-ylcarbamoyl}-2,6-difluorophenyl)-2-methylacrylic acid], the pEC50 (Table 1) was 9.11.
In the case of `CCC(CC)OCc1cccc(-c2csc(NC(=O)c3cc(Cl)c(/C=C(\C)C(=O)O)c(Cl)c3)n2)c1OC` [Compound B1892, (E)-3-(2,6-dichloro-4-{4-[3-(1-ethylpropyloxymethyl)-2-methyloxyphenyl]thiazol-2-ylcarbamoyl}phenyl)-2-methylacrylic acid], the pEC50 (Table 1) was 7.93.
Consider `CCCCCCCOc1cccc(-c2csc(NC(=O)c3cc(F)c(/C=C(\OC)C(=O)O)c(F)c3)n2)c1OC` [Compound B2000, (Z)-3-{2,6-difluoro-4-[4-(3-heptyloxy-2-methyloxyphenyl)thiazol-2-ylcarbamoyl]phenyl}-2-methyloxyacrylic acid], for which the pEC50 (Table 2) was 7.69.
Take `CCCCCCCCOC(C)c1cccc(-c2csc(NC(=O)c3cc(F)c(C=C(C)C(=O)O)c(F)c3)n2)c1F` (centres unmarked) [Compound B30, 3-(2,6-difluoro-4-{4-[2-fluoro-3-(1-n-octyloxyethyl)phenyl]thiazol-2-ylcarbamoyl}phenyl)-2-methylacrylic acid]: for the setting “Table 1”, the pEC50 was 9.11.
The same measure, in the same setting: the same measure for `CCCCOC(c1cccc(-c2csc(NC(=O)c3cc(F)c(/C=C(\C)C(=O)O)c(F)c3)n2)c1OC)C(C)(C)C` (centres unmarked) [Compound B425, (E)-3-(4-{4-[3-(1-butyloxy-2,2-dimethylpropyl)-2-methyloxyphenyl]thiazol-2-ylcarbamoyl}-2,6-difluorophenyl)-2-methylacrylic acid]: 8.70.
Take `COc1c(CCOCCC(C)C)cccc1-c1csc(NC(=O)c2cc(Cl)c(/C=C(\C)C(=O)O)c(Cl)c2)n1` [Compound B1955]: for the setting “Table 1”, the pEC50 was 7.93.
